Here are results for 1 compound from US20140199690A1, “MATERIALS AND METHODS FOR HIGH-THROUGHPUT DETERMINATION OF GENOME-WIDE DNA METHYLATION PROFILE” (THE HONG KONG UNIVERSITY OF SCIENCE AND TECHNOLOGY, priority 2013, published 2014).

One assay concerns HEK293T cells. The assay can be described thus: FPDM measurement of cellular DNA methylation after 5-aza-dC treatment. It is filed as cell-based, human. As to conditions: 3 days, 100 ng DNA.
The subject of assay [1] is murine embryonic fibroblasts cells. To be noted: 5 μM aza-dC; cited from earlier work.

Structures are written as SMILES.

`Nc1ncn([C@H]2C[C@H](O)[C@@H](CO)O2)c(=O)n1` [5-aza-dC, 5-aza-2′-deoxycytidine]: the “cellular DNA methylation measured by FPDM, relative to untreated control” value in the assay on HEK293T cells (5 μM 5-aza-dC) is on record as 67.73±0.53 % of control; in the assay on HEK293T cells (10 μM 5-aza-dC), 45.16±8.84 % of control. Moreover, in assay [1], the “hypomethylation relative to the untreated control” value is “about 42%”.
